From patent US6548505B1, “Radioprotectors” (Peter MacCallum Cancer Institute, priority 1995, dated 2003)
Values joined by “and” are separate entries in the source; they are usually repeats but may differ in a detail not shown here. Identical values can stand only once.

Tests used:
V79 cells [1] = assay: Radioprotection, clonogenic survival of irradiated V79 cells; type: cell-based; details: for DMF: survival curves FIG. 3; for Protector plus irradiation (12 Gy), survival fraction relative to untreated control cells / Protection Factor: 12 Gy; for Protection Factor: ratio of survival fractions with and without protector
Experimental: (§1) Monolayers of V79 cells were maintained in 25 cm^2 Falcon plastic flasks in alpha-MEM medium with 10% foetal calf serum (FCS). Log phase cultures were treated by adding the required amount of Hoechst 33258, Hoechst 33342 or para dimethylamino Hoechst (25-500 nmoles) dissolved in 50 μL 10 μM acetic acid in 50% methanol. The flasks were inverted immediately prior to adding the compound to ensure complete mixing of the compound with the medium, before contact with the monolayer.
(§2) After 2 hours incubation at 37° C., the cells were harvested and assayed for clonogenic survival. […] All clonogenic survival results are expressed relative to the untreated controls.
Cultures were irradiated in a 137Cs Gammacell-40 (Atomic Energy of Canada Ltd.) at a dose rate of 0.84 Gy/min. Ligand-treated cells were irradiated two hours after starting the exposure to the ligand. In all cases, the clonogenic survival was delayed until one hour after completion of irradiation.
(§3) Hoechst 33258, Hoechst 33342 or para dimethylamino Hoechst was added to the media of monolayers of V79 cells, to the indicated final concentrations. […] All cultures were held for a further one hour prior to plating for clonogenic survival.
Mono layer cultures of V79 cells were exposed to various concentrations of the three radioprotectors, as described in (a) above. After two hours, the cells were chilled and kept cold during the isolation of nuclei, using 0.08% w.v Triton X-100. After counting an aliquot of the nuclear suspension, the ligands were extracted and quantitated by spectrophotometry and the nuclear content calculated. The survival results shown in the lower part of FIG. 1 were replotted using the nuclear uptake data and the results are shown in FIG. 2.
The first three columns show survival fraction relative to that for untreated control cells. Each row represents a separate experiment and the figures are the means of duplicates. The figures in square brackets is the mean of a number of the results of a number of experiments done over the relevant period. The protection factor is the ratio of survival fractions for irradiated cells, with and without protector.
A number of bibenzimidazoles represented by formula (I) have been synthesised and assayed for radioprotective activity in cell culture. Assays were conducted using V79 fibroblasts and involved exposure of the cells to a single radiation dose (12Gy) and comparison of the clonogenic survival with and without the inclusion of the protector in the cell culture medium. The ratio of the survival fractions (with protector/without), designated the protection ratio (PR12Gy), provides a measure of the extent of radioprotection. The experimental protocol adopted was as in Example 12.

pig skin = assay: Pig skin studies, topical radioprotector cream; type: in vivo; details: cream 0.15 g/field, 5000 μg/g
Description: The pig skin model is described by J. W. Hopewell^4. The structural similarities between human and pig skin underlie the relevance of the model.
Although some pig skin studies involve external beam irradiation, a particularly convenient radiation source is discs containing β-emitting isotopes, typically ^90Sr. The sources can be held to the skin, or for higher doses, taped to the animal, for appropriate periods of time to deliver the required dose. The discs are typically about 2 cm in diameter so that an array of different doses can be arranged on the flanks of a single animal.
The “acute” reactions (3-9 weeks after irradiation) result from radiation damage to the basal cells of the epidermis, and are manifest as erythema, and dry and moist desquamation. The “late” reactions (10-16 weeks) results from radiation effects to the dermal vascular connective tissue, characterized by a dusky mauve erythema and necrosis. The scoring system is well described.
The radioprotectors were formulated in a propylene glycol cream containing 10% DMSO. The extent and kinetics of penetration were followed by fluorescence microscopy of frozen skin sections, to enable optimization of delivery.
Radiation dose response curves were constructed for radiation only fields. The results of fields with radioprotector creams are shown in Table 3 below, with the respective cream (vehicle) only controls. The decrease in extent of skin reaction for the test fields is evident.

V79 cells [2] = assay: Cytotoxicity, clonogenic survival of V79 cells without irradiation
Experimental: as §1, §2, §3

mouse lung = assay: Mouse lung model, bilateral lung irradiation; type: in vivo; details: maximum breathing rate up to 24 weeks, FIG. 5
Description: Irradiation of mouse lung, at appropriate doses, results in fatal loss of lung function. The onset of damage is signalled by an increase in breathing rate. The dose response and kinetics of loss of lung function following irradiation of both lungs varies between different mouse strains.
The procedures for irradiation and measurement of breathing rate were essentially as described by Travis et al^3. Groups of 5-6 male DBA/2J mice were anaesthetised and irradiated with 250 kV X-rays (single dose) using a jig that shielded all the body except for both lungs. A thin midline lead strip was used to shield spinal cord between the lungs.
At weekly intervals, from 4-6 weeks post-irradiation, the breathing rate was measured for each mouse. The mouse was held in a small chamber equipped with a microphone and the output analysed on a PC. The mean breathing rate was determined for each of 3 periods of 2 seconds and the average of these readings was recorded as the breathing rate. The recorded breathing rates for each group of mice were averaged and the standard error calculated.
All mice were monitored daily for signs of respiratory distress (hunched appearance, raised hair), with particular attention being paid to those mice showing elevated breathing rate.
The radioprotector (2 mg/25 g mouse) was administered 30 minutes prior to the single irradiation dose.

[3] = tested on: Chinese Hamster Ovary (CHO) fibroblasts; assay: Radioprotection survival curves of cultured CHO cells (FIG. 7, Table 5); type: cell-based; details: ratio of doses reducing survival to 10% of control
Description: where S is the survival fraction at dose D Gy, and α and β are constants.
The fitted values of α and β were used to calculate the radiation doses (D0.1) corresponding to a survival fraction of 0.1. The ratio of the D0.1 values with and without protector, then provided the Dose Modification Factor (DMF) for each compound:
DMF=D0.1(with protector)/D0.1(without)

CHO = assay: Radioprotection DMF in CHO cells (Table 1, existing radioprotector); type: cell-based; details: 4 mM

SMILES: CN1CCN(c2ccc3[nH]c(-c4ccc5[nH]c(-c6ccc(N(C)C)cc6)nc5c4)nc3c2)CC1 [Compound 1, 4Dimethylamino-1-[5′-{5′″-(4′″-methylpiperazin-1′″-yl)benzimidazol-2″-yl]benzimidazol-2′-yl}benzene]
- DMF (V79 cells [1]; V79, 84 μM): 1.7
- Protection ratio 12Gy, Exp 8 (V79 cells [1]; V79, 12Gy 137Cs-γ, 20 μM): 5.1
- Protection ratio 12Gy, Exp 8 (V79 cells [1]; V79, 12Gy 137Cs-γ, 40 μM): 7.7
- Protection ratio 12Gy, Exp 8 (V79 cells [1]; V79, 12Gy 137Cs-γ, 50 μM): 8.0
- radioprotective potency, survival after 12Gy in terms of nuclear content of the radioprotector (V79 cells [1]; V79 cells, 12Gy, uptake per 10^6 nuclei, FIG. 2): more potent radioprotector
- Fields showing moist desquamation (10 weeks post-Irr.) # (pig skin; 36 Gy): 4/7
- Fields showing moist desquamation (10 weeks post-Irr.) % (pig skin; 36 Gy): 57%
- concentration up to which there is no effect on survival (V79 cells [2]; V79 cells, no irradiation, clonogenic survival, FIG. 1): up to 100 μM

SMILES: CN(C)c1ccc(-c2nc3cc(-c4nc5cc(N6CCCCC6)ccc5[nH]4)ccc3[nH]2)cc1 [Compound 2, 4-Dimethylamino-1-{5′-[5″-(piperidin-1′″-yl)benzimidazol-2″-yl]benzimidazol-2′-yl}benzene]
- Protector plus irradiation (12 Gy), survival fraction relative to untreated control cells (V79 cells [1]; 17 μM): 0.062 and 0.059
- Protection Factor (V79 cells [1]; 17 μM): 2.8 and 2.7
- Protector only (no irradiation), survival fraction relative to untreated control cells (V79 cells [2]; 17 μM): 0.89 and 0.81

SMILES: Cc1cc(N(C)C)ccc1-c1nc2cc(-c3nc4cc(N5CCN(C)CC5)ccc4[nH]3)ccc2[nH]1 [Compound 5, ortho methyl para dimethylamino Hoechst]
- DMF, maximum breathing rate (mouse lung): 1.4
- Protector plus irradiation (12 Gy), survival fraction relative to untreated control cells (V79 cells [1]; 20 μM): 0.15 and 0.145 and 0.12
- Protection Factor (V79 cells [1]; 20 μM): 4.4 and 4.0 and 4.3
- DMF (V79 cells [1]; V79, 30 μM): 2.1
- Protection ratio 12Gy, Exp 5 (V79 cells [1]; V79, 12Gy 137Cs-γ, 30 μM): 17.4
- Protection ratio 12Gy, Exp 10 (V79 cells [1]; V79, 12Gy 137Cs-γ, 30 μM): 18.7
- DMF ([3]; 30 μM): 1.66
- Fields showing moist desquamation (10 weeks post-Irr.) # (pig skin; 40 Gy): 4/8
- Fields showing moist desquamation (10 weeks post-Irr.) % (pig skin; 40 Gy): 50%
- Fields showing moist desquamation (10 weeks post-Irr.) # (pig skin; 44 Gy): 4/8
- Fields showing moist desquamation (10 weeks post-Irr.) % (pig skin; 44 Gy): 50%
- Protector only (no irradiation), survival fraction relative to untreated control cells (V79 cells [2]; 20 μM): 0.71 and 0.63 and 0.88

SMILES: CCOc1ccc(-c2nc3cc(-c4nc5cc(N6CCN(C)CC6)ccc5[nH]4)ccc3[nH]2)c(C)c1 [Compound 6, 4-Ethoxy-2-methyl{5′-[5″(4′″-methylpiperazin-1′″-yl)benzimidazol-2″-yl]benzimidazol-2′-yl}benzene]
- Protection ratio 12Gy, Exp 3 (V79 cells [1]; V79, 12Gy 137Cs-γ, 20 μM): 8.0

SMILES: CCOc1ccc(-c2nc3cc(-c4nc5cc(N6CCN(C)CC6)ccc5[nH]4)ccc3[nH]2)c(C(C)C)c1 [Compound 7, 4-Ethoxy-2i-propyl-1-{5′-[5″-(4′″-methylpiperazin-1′″-yl)benzimidazol-2′-yl]benzimidazol-2′-yl}benzene]
- Protection ratio 12Gy, Exp 4 (V79 cells [1]; V79, 12Gy 137Cs-γ, 20 μM): 10.8
- Protection ratio 12Gy, Exp 4 (V79 cells [1]; V79, 12Gy 137Cs-γ, 30 μM): 10.4
- Protection ratio 12Gy, Exp 5 (V79 cells [1]; V79, 12Gy 137Cs-γ, 30 μM): 11.3
- Protection ratio 12Gy, Exp 4 (V79 cells [1]; V79, 12Gy 137Cs-γ, 40 μM): 14.2
- Protection ratio 12Gy, Exp 5 (V79 cells [1]; V79, 12Gy 137Cs-γ, 40 μM): 13.2
- Protection ratio 12Gy, Exp 5 (V79 cells [1]; V79, 12Gy 137Cs-γ, 50 μM): 15.2
- DMF ([3]; 20 μM): 1.42

SMILES: CN1CCN(c2ccc3[nH]c(-c4ccc5[nH]c(-c6cccc(N(C)C)c6)nc5c4)nc3c2)CC1 [Compound 9, 3-N,N-Dimethylamino-1-{5′-[5″-(4′″-methylpiperazin-1′″-yl)benzimidazol-2″-yl]benzimidazol-2′-yl}benzene]
- Protection ratio 12Gy, Exp 6 (V79 cells [1]; V79, 12Gy 137Cs-γ, 20 μM): 3.6
- Protection ratio 12Gy, Exp 7 (V79 cells [1]; V79, 12Gy 137Cs-γ, 30 μM): 7.6
- Protection ratio 12Gy, Exp 7 (V79 cells [1]; V79, 12Gy 137Cs-γ, 40 μM): 7.2
- Protection ratio 12Gy, Exp 1 (V79 cells [1]; V79, 12Gy 137Cs-γ, 50 μM): 9.7
- Protection ratio 12Gy, Exp 2 (V79 cells [1]; V79, 12Gy 137Cs-γ, 50 μM): 9.5
- Protection ratio 12Gy, Exp 7 (V79 cells [1]; V79, 12Gy 137Cs-γ, 50 μM): 8.2

SMILES: CCOc1ccc(-c2cc3ccc(-c4nc5cc(N6CCN(C)CC6)ccc5[nH]4)cc3[nH]2)cc1 [Compound 10, 4-Ethoxy-1-{6′-[5″-(4′″-methylpiperazin-1′″-yl)benzimidazol-2″-yl]indol-2′-yl}benzene]
- Protection ratio 12Gy, Exp 9 (V79 cells [1]; V79, 12Gy 137Cs-γ, 20 μM): 1.5
- Protection ratio 12Gy, Exp 9 (V79 cells [1]; V79, 12Gy 137Cs-γ, 40 μM): 1.4

SMILES: NCCCNCCS [WR1065]
- DMF (CHO): 1.9

SMILES: CN1CCN(c2ccc3[nH]c(-c4ccc5[nH]c(-c6ccc([N+](=O)[O-])cc6)nc5c4)nc3c2)CC1 [para nitro Hoechst, reference compound]
- Protector plus irradiation (12 Gy), survival fraction relative to untreated control cells (V79 cells [1]; 20 μM): 0.011
- Protection Factor (V79 cells [1]; 20 μM): [0.5]*
- Protector only (no irradiation), survival fraction relative to untreated control cells (V79 cells [2]; 20 μM): 0.89
